# pIC50: −log10 of the molar value. Counter-ions that a name gives are not always drawn.
# Molecular target: T1, human TRPM8 (Homo sapiens, UniProt Q7Z2W7)
# T1 construct: expressed in transfected cells; host or cells: Chinese hamster ovary (CHO) cells, T-REx tetracycline-inducible expression system (Invitrogen); co-transfected with pcDNA3.1 aequorin
# Experiment: Luminescence readout assay for measuring intracellular calcium (aequorin, CHO cells expressing human TRPM8; icilin, L-menthol or cold activation)
# Type: cell-based
# Conditions: CHO cells expressing human TRPM8, icilin activation (1 μM), aequorin luminescence; read-out: hTRPM8 IC50
# Procedure, shortened: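 Activation was by 1 μM icilin, 100 μM L-menthol (test compound 2.5 min ahead) or cold buffer below 10° C (compound 1 min ahead). Calcium rise measured as aequorin luminescence in CHO cells with tetracycline-inducible human TRPM8.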
# T1 sequence (Q7Z2W7 whole entry): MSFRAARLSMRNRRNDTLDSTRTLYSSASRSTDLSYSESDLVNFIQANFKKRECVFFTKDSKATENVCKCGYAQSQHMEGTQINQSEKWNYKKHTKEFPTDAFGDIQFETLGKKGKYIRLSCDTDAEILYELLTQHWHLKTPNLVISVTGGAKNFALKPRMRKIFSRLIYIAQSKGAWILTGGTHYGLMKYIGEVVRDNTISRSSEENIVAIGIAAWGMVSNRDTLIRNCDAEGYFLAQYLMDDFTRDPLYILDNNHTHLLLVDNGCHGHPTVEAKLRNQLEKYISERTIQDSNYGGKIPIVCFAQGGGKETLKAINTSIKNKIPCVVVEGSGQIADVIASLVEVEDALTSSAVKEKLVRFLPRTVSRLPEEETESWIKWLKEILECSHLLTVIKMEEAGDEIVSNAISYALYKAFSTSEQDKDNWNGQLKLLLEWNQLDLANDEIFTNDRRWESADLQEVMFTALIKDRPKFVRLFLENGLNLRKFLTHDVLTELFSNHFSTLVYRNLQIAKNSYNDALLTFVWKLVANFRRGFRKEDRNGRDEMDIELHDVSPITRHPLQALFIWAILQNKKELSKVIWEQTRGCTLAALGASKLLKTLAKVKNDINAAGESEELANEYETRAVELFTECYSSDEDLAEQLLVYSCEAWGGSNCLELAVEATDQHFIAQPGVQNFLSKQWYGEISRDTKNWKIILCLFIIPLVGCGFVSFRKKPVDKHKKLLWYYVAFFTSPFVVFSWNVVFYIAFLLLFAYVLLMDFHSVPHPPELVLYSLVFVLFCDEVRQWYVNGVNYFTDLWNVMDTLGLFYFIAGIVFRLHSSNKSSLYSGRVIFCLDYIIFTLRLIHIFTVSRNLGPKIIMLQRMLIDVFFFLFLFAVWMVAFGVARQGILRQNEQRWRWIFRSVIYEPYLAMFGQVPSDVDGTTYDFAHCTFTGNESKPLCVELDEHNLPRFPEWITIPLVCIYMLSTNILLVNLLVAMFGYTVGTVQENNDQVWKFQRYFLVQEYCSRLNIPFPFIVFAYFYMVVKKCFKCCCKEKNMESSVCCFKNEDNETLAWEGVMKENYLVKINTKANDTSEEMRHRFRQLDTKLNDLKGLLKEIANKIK
row,pIC50,Compound
1,7.47,"Cn1ccc2cc(C(=O)N[C@]3(c4ccc(OC(F)(F)F)cc4)CCOc4cccnc43)ccc21 [Example 258, (S)-1-methyl-N-(4-(4-(trifluoromethoxy)phenyl)-3,4-dihydro-2H-pyrano[3,2-b]pyridin-4-yl)-1H-indole-5-carboxamide formate]"
2,7.06,"O=C(N[C@]1(c2ccc(OC(F)(F)F)cc2)CCOc2cccnc21)C1=Cc2ccccc2OC1 [Example 259, (S)-N-(4-(4-(trifluoromethoxy)phenyl)-3,4-dihydro-2H-pyrano[3,2-b]pyridin-4-yl)-2H-chromene-3-carboxamide formate]"
3,7.49,"Cn1c(C(=O)N[C@]2(c3ccc(OC(F)(F)F)cc3)CCOc3cccnc32)nc2ccccc21 [Example 260, (S)-1-methyl-N-(4-(4-(trifluoromethoxy)phenyl)-3,4-dihydro-2H-pyrano[3,2-b]pyridin-4-yl)-1H-benzo[d]imidazole-2-carboxamide formate]"
4,7.49,"Cn1ncc2c(C(=O)N[C@]3(c4ccc(OC(F)(F)F)cc4)CCOc4cccnc43)cccc21 [Example 261, (S)-1-methyl-N-(4-(4-(trifluoromethoxy)phenyl)-3,4-dihydro-2H-pyrano[3,2-b]pyridin-4-yl)-1H-indazole-4-carboxamide formate]"
5,8.15,"Cn1ncc2cc(C(=O)N[C@]3(c4ccc(OC(F)(F)F)cc4)CCOc4cccnc43)ccc21 [Example 262, (S)-1-methyl-N-(4-(4-(trifluoromethoxy)phenyl)-3,4-dihydro-2H-pyrano[3,2-b]pyridin-4-yl)-1H-indazole-5-carboxamide formate]"
6,7.02,"Cn1ncc2ccc(C(=O)N[C@]3(c4ccc(OC(F)(F)F)cc4)CCOc4cccnc43)cc21 [Example 263, (S)-1-methyl-N-(4-(4-(trifluoromethoxy)phenyl)-3,4-dihydro-2H-pyrano[3,2-b]pyridin-4-yl)-1H-indazole-6-carboxamide formate]"
7,7.13,"Cn1cc2c(C(=O)N[C@]3(c4ccc(OC(F)(F)F)cc4)CCOc4cccnc43)cccc2n1 [Example 264, (S)-2-methyl-N-(4-(4-(trifluoromethoxy)phenyl)-3,4-dihydro-2H-pyrano[3,2-b]pyridin-4-yl)-2H-indazole-4-carboxamide formate]"
8,7.85,"Cn1cc2ccc(C(=O)N[C@]3(c4ccc(OC(F)(F)F)cc4)CCOc4cccnc43)cc2n1 [Example 265, (S)-2-methyl-N-(4-(4-(trifluoromethoxy)phenyl)-3,4-dihydro-2H-pyrano[3,2-b]pyridin-4-yl)-2H-indazole-6-carboxamide formate]"
9,7.44,"Cn1cc2cccc(C(=O)N[C@]3(c4ccc(OC(F)(F)F)cc4)CCOc4cccnc43)c2n1 [Example 266, (S)-2-methyl-N-(4-(4-(trifluoromethoxy)phenyl)-3,4-dihydro-2H-pyrano[3,2-b]pyridin-4-yl)-2H-indazole-7-carboxamide formate]"
10,7.43,"O=C(N[C@]1(c2ccc(OC(F)(F)F)cc2)CCOc2cccnc21)c1cc2ccccc2s1 [Example 267, (S)-N-(4-(4-(trifluoromethoxy)phenyl)-3,4-dihydro-2H-pyrano[3,2-b]pyridin-4-yl) benzo[b]thiophene-2-carboxamide formate]"
11,7.15,"O=C(N[C@]1(c2ccc(OC(F)(F)F)cc2)CCOc2cccnc21)c1csc2ccccc12 [Example 268, (S)-N-(4-(4-(trifluoromethoxy)phenyl)-3,4-dihydro-2H-pyrano[3,2-b]pyridin-4-yl) benzo[b]thiophene-3-carboxamide formate]"
12,7.62,"O=C(N[C@]1(c2ccc(OC(F)(F)F)cc2)CCOc2cccnc21)c1ccc2nsnc2c1 [Example 269, (S)-N-(4-(4-(trifluoromethoxy)phenyl)-3,4-dihydro-2H-pyrano[3,2-b]pyridin-4-yl) benzo[c][1,2,5] thiadiazole-5-carboxamide formate]"
13,7.36,"Cn1nc2c(c1C(=O)N[C@]1(c3ccc(OC(F)(F)F)cc3)CCOc3cccnc31)CCCC2 [Example 270, (S)-2-methyl-N-(4-(4-(trifluoromethoxy)phenyl)-3,4-dihydro-2H-pyrano[3,2-b]pyridin-4-yl)-4,5,6,7-tetrahydro-2H-indazole-3-carboxamide formate]"
14,7.80,"O=C(N[C@]1(c2ccc(OC(F)(F)F)cc2)CCOc2cccnc21)c1ccc2cc[nH]c(=O)c2c1 [Example 271, (S)-1-oxo-N-(4-(4-(trifluoromethoxy)phenyl)-3,4-dihydro-2H-pyrano[3,2-b]pyridin-4-yl)-1,2-dihydroisoquinoline-7-carboxamide formate]"
15,6.74,"O=C(N[C@]1(c2ccc(OC(F)(F)F)cc2)CCOc2cccnc21)c1c[nH]c(=O)c2ccccc12 [Example 272, (S)-1-oxo-N-(4-(4-(trifluoromethoxy)phenyl)-3,4-dihydro-2H-pyrano[3,2-b]pyridin-4-yl)-1,2-dihydroisoquinoline-4-carboxamide formate]"
16,7.72,"O=C(N[C@]1(c2ccc(OC(F)(F)F)cc2)CCOc2cccnc21)c1ccc(-c2cnco2)cc1 [Example 273, (S)-4-(oxazol-5-yl)-N-(4-(4-(trifluoromethoxy)phenyl)-3,4-dihydro-2H-pyrano[3,2-b]pyridin-4-yl)benzamide formate]"
17,6.72,"COc1cc2cc(C(=O)N[C@]3(c4ccc(OC(F)(F)F)cc4)CCOc4cccnc43)[nH]c2cn1 [Example 274, (S)-5-methoxy-N-(4-(4-(trifluoromethoxy)phenyl)-3,4-dihydro-2H-pyrano[3,2-b]pyridin-4-yl)-1H-pyrrolo[2,3-c] pyridine-2-carboxamide formate]"
18,7.47,"Cc1nc(-c2cccc(C(=O)N[C@]3(c4ccc(OC(F)(F)F)cc4)CCOc4cccnc43)c2)no1 [Example 275, (S)-3-(5-methyl-1,2,4-oxadiazol-3-yl)-N-(4-(4-(trifluoromethoxy)phenyl)-3,4-dihydro-2H-pyrano[3,2-b]pyridin-4-yl)benzamide formate]"
19,7.80,"Cc1nc(-c2ccc(C(=O)N[C@]3(c4ccc(OC(F)(F)F)cc4)CCOc4cccnc43)cc2)no1 [Example 276, (S)-4-(5-methyl-1,2,4-oxadiazol-3-yl)-N-(4-(4-(trifluoromethoxy)phenyl)-3,4-dihydro-2H-pyrano[3,2-b]pyridin-4-yl)benzamide formate]"
20,7.07,"O=C(N[C@]1(c2ccc(OC(F)(F)F)cc2)CCOc2cccnc21)c1cccc(N2CCCC2=O)c1 [Example 277, (S)-3-(2-oxopyrrolidin-1-yl)-N-(4-(4-(trifluoromethoxy)phenyl)-3,4-dihydro-2H-pyrano[3,2-b]pyridin-4-yl)benzamide formate]"
21,7.17,"COc1ccc2c(c1)C=C(C(=O)N[C@]1(c3ccc(OC(F)(F)F)cc3)CCOc3cccnc31)CO2 [Example 278, (S)-6-methoxy-N-(4-(4-(trifluoromethoxy)phenyl)-3,4-dihydro-2H-pyrano[3,2-b]pyridin-4-yl)-2H-chromene-3-carboxamide fonnate]"
22,7.28,"CCOC(=O)c1nc(C(=O)N[C@]2(c3ccc(OC(F)(F)F)c(F)c3)CCOc3cccnc32)cs1 [Example 279, (S)-ethyl 4-((4-(3-fluoro-4-(trifluoromethoxy)phenyl)-3,4-dihydro-2H-pyrano[3,2-b]pyridin-4-yl)carbamoyl) thiazole-2-carboxylate]"
23,7.59,"COC(=O)c1cccc(C(=O)N[C@]2(c3ccc(OC(F)(F)F)c(F)c3)CCOc3cccnc32)c1 [Example 280, (S)-methyl 3-((4-(3-fluoro-4-(trifluoromethoxy)phenyl)-3,4-dihydro-2H-pyrano[3,2-b]pyridin-4-yl)carbamoyl) benzoate]"
24,7.29,"O=C(N[C@]1(c2ccc(OC(F)(F)F)c(F)c2)CCOc2cccnc21)c1ccc(-c2nn[nH]n2)cn1 [Example 281, (S)—N-(4-(3-fluoro-4-(trifluoromethoxy)phenyl)-3,4-dihydro-2H-pyrano[3,2-b]pyridin-4-yl)-5-(2H-tetrazol-5-yl)picolinamide]"
25,8.15,"O=C(N[C@]1(c2ccc(OC(F)(F)F)c(F)c2)CCOc2cccnc21)c1ccc(-c2ncon2)cn1 [Example 282, (S)—N-(4-(3-fluoro-4-(trifluoromethoxy)phenyl)-3,4-dihydro-2H-pyrano[3,2-b]pyridin-4-yl)-5-(1,2,4-oxadiazol-3-yl)picolinamide]"
26,8.22,"Nc1ccc(C(=O)N[C@]2(c3ccc(OC(F)(F)F)c(F)c3)CCOc3cccnc32)nc1 [Example 284, (S)-5-amino-N-(4-(3-fluoro-4-(trifluoromethoxy)phenyl)-3,4-dihydro-2H-pyrano[3,2-b]pyridin-4-yl)picolinamide]"
27,6.75,"COC(=O)c1cccc(S(=O)(=O)N[C@]2(c3ccc(OC(F)(F)F)c(F)c3)CCOc3cccnc32)c1 [Example 285, (S)-methyl 3-(N-(4-(3-fluoro-4-(trifluoromethoxy)phenyl)-3,4-dihydro-2H-pyrano[3,2-b]pyridin-4-yl)sulfamoyl)benzoate]"
28,6.12,"COC(=O)c1ccc(S(=O)(=O)N[C@]2(c3ccc(OC(F)(F)F)c(F)c3)CCOc3cccnc32)cc1 [Example 286, (S)-methyl 4-(N-(4-(3-fluoro-4-(trifluoromethoxy)phenyl)-3,4-dihydro-2H-pyrano[3,2-b]pyridin-4-yl)sulfamoyl)benzoate]"
29,7.77,"Cc1cc(C(=O)N[C@]2(c3ccc(C(F)(F)F)c(F)c3)CCOc3cccnc32)ccc1C(=O)O [Example 287, (S)-4-((4-(3-fluoro-4-(trifluoromethyl)phenyl)-3,4-dihydro-2H-pyrano[3,2-b]pyridin-4-yl)carbamoyl)-2-methylbenzoic acid]"
30,7.35,"Cc1cc(C(=O)N[C@]2(c3ccc(C(F)(F)F)cc3)CCOc3cccnc32)ccc1C(=O)O [Example 288, (S)-2-methyl-4-((4-(4-(trifluoromethyl)phenyl)-3,4-dihydro-2H-pyrano[3,2-b]pyridin-4-yl)carbamoyl)benzoic acid]"

# Reference: patent US20150031668A1, “CHROMAN DERIVATIVES AS TRPM8 INHIBITORS” (AMGEN INC., priority 2013, published 2015)
